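Here, GI50 denotes the concentration required for 50% inhibition of growth. TGI marks complete inhibition of growth.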
Experiments:
Test in all cases: NCI tumour cell line growth inhibition, 384-well format
786-0 renal = system: 786-0 renal
A498 renal = system: A498 renal
A549 NSCLC = system: A549 NSCLC
ACHN renal = system: ACHN renal
BT-549 breast = system: BT-549 breast
CAKI-1 renal = system: CAKI-1 renal
COLO 205 colon = system: COLO 205 colon
DU-145 prostate = system: DU-145 prostate
EKVX NSCLC = system: EKVX NSCLC
HCC-2998 colon = system: HCC-2998 colon
HCT-116 colon = system: HCT-116 colon
HCT-15 colon = system: HCT-15 colon
HL-60(TB) leukemia = system: HL-60(TB) leukemia
HOP-62 NSCLC = system: HOP-62 NSCLC
HOP-92 NSCLC = system: HOP-92 NSCLC
HS 578T breast = system: HS 578T breast
HT29 colon = system: HT29 colon
IGROV1 ovarian = system: IGROV1 ovarian
KM12 colon = system: KM12 colon
LOX IMVI melanoma = system: LOX IMVI melanoma
M14 melanoma = system: M14 melanoma
MALME-3M melanoma = system: MALME-3M melanoma
MCF7 breast = system: MCF7 breast
MDA-MB-231 breast = system: MDA-MB-231 breast
MDA-MB-435 melanoma = system: MDA-MB-435 melanoma
MDA-MB-468 breast = system: MDA-MB-468 breast
MOLT-4 leukemia = system: MOLT-4 leukemia
NCI-H226 lung = system: NCI-H226 lung
NCI-H23 lung = system: NCI-H23 lung
NCI-H322M lung = system: NCI-H322M lung
NCI-H460 NSCLC = system: NCI-H460 NSCLC
NCI-H522 lung = system: NCI-H522 lung
NCI/ADR-RES ovarian = system: NCI/ADR-RES ovarian
OVCAR-3 ovarian = system: OVCAR-3 ovarian
OVCAR-4 ovarian = system: OVCAR-4 ovarian
OVCAR-5 ovarian = system: OVCAR-5 ovarian
OVCAR-8 ovarian = system: OVCAR-8 ovarian
PC-3 prostate = system: PC-3 prostate
RPMI-8226 leukemia = system: RPMI-8226 leukemia
RXF 393 renal = system: RXF 393 renal
SF-268 CNS = system: SF-268 CNS
SF-295 CNS = system: SF-295 CNS
SF-539 CNS = system: SF-539 CNS
SK-MEL-28 melanoma = system: SK-MEL-28 melanoma
SK-MEL-5 melanoma = system: SK-MEL-5 melanoma
SK-OV-3 ovarian = system: SK-OV-3 ovarian
SN12C renal = system: SN12C renal
SNB-19 CNS = system: SNB-19 CNS
SNB-75 CNS = system: SNB-75 CNS
SR leukemia = system: SR leukemia
SW-620 colon = system: SW-620 colon
T-47D breast = system: T-47D breast
TK-10 renal = system: TK-10 renal
U251 glioblastoma = system: U251 glioblastoma
UACC-257 melanoma = system: UACC-257 melanoma
UACC-62 melanoma = system: UACC-62 melanoma
UO-31 renal = system: UO-31 renal

CC(C)C[C@H](NC(=O)[C@H](CCc1ccccc1)NC(=O)CN1CCOCC1)C(=O)N[C@@H](Cc1ccccc1)C(=O)N[C@@H](CC(C)C)C(=O)[C@@]1(C)CO1
GI50 (786-0 renal): < 10 nM | TGI (786-0 renal): 16.5 nM | GI50 (A498 renal): < 10 nM | TGI (A498 renal): 24.5 nM | GI50 (A549 NSCLC): < 10 nM | TGI (A549 NSCLC): 25.7 nM | GI50 (ACHN renal): 33.2 nM | TGI (ACHN renal): 109 nM | GI50 (BT-549 breast): < 10 nM | TGI (BT-549 breast): < 10 nM | GI50 (CAKI-1 renal): 17.6 nM | TGI (CAKI-1 renal): 53.9 nM | GI50 (COLO 205 colon): 28.3 nM | TGI (COLO 205 colon): 105 nM | GI50 (DU-145 prostate): < 10 nM | TGI (DU-145 prostate): 19.5 nM | GI50 (EKVX NSCLC): 13.1 nM | TGI (EKVX NSCLC): 36.2 nM | GI50 (HCC-2998 colon): < 10 nM | TGI (HCC-2998 colon): 14 nM | GI50 (HCT-116 colon): < 10 nM | TGI (HCT-116 colon): < 10 nM | GI50 (HCT-15 colon): 23.9 nM | TGI (HCT-15 colon): 86.9 nM | GI50 (HL-60(TB) leukemia): < 10 nM | TGI (HL-60(TB) leukemia): < 10 nM | GI50 (HOP-62 NSCLC): < 10 nM | TGI (HOP-62 NSCLC): < 10 nM | GI50 (HOP-92 NSCLC): 11.6 nM | TGI (HOP-92 NSCLC): 24.3 nM | GI50 (HS 578T breast): < 10 nM | TGI (HS 578T breast): < 10 nM | GI50 (HT29 colon): < 10 nM | TGI (HT29 colon): < 10 nM | GI50 (IGROV1 ovarian): 15 nM | TGI (IGROV1 ovarian): 30.1 nM | GI50 (KM12 colon): < 10 nM | TGI (KM12 colon): < 10 nM | GI50 (LOX IMVI melanoma): < 10 nM | TGI (LOX IMVI melanoma): < 10 nM | GI50 (M14 melanoma): < 10 nM | TGI (M14 melanoma): 19.1 nM | GI50 (MALME-3M melanoma): < 10 nM | TGI (MALME-3M melanoma): 18.8 nM | GI50 (MCF7 breast): < 10 nM | TGI (MCF7 breast): 12.4 nM | GI50 (MDA-MB-231 breast): < 10 nM | TGI (MDA-MB-231 breast): < 10 nM | GI50 (MDA-MB-435 melanoma): < 10 nM | TGI (MDA-MB-435 melanoma): 21.5 nM | GI50 (MDA-MB-468 breast): < 10 nM | TGI (MDA-MB-468 breast): 16.1 nM | GI50 (MOLT-4 leukemia): < 10 nM | TGI (MOLT-4 leukemia): < 10 nM | GI50 (NCI-H226 lung): < 10 nM | TGI (NCI-H226 lung): < 10 nM | GI50 (NCI-H23 lung): < 10 nM | TGI (NCI-H23 lung): < 10 nM | GI50 (NCI-H322M lung): 15.5 nM | TGI (NCI-H322M lung): 33.7 nM | GI50 (NCI-H460 NSCLC): 18.2 nM | TGI (NCI-H460 NSCLC): 33.6 nM | GI50 (NCI-H522 lung): < 10 nM | TGI (NCI-H522 lung): 10.8 nM | GI50 (NCI/ADR-RES ovarian): 422 nM | TGI (NCI/ADR-RES ovarian): 1610 nM | GI50 (OVCAR-3 ovarian): < 10 nM | TGI (OVCAR-3 ovarian): < 10 nM | GI50 (OVCAR-4 ovarian): < 10 nM | TGI (OVCAR-4 ovarian): 18.3 nM | GI50 (OVCAR-5 ovarian): 17.3 nM | TGI (OVCAR-5 ovarian): 45.3 nM | GI50 (OVCAR-8 ovarian): 14.6 nM | TGI (OVCAR-8 ovarian): 28 nM | GI50 (PC-3 prostate): 10.5 nM | TGI (PC-3 prostate): 23.3 nM | GI50 (RPMI-8226 leukemia): < 10 nM | TGI (RPMI-8226 leukemia): < 10 nM | GI50 (RXF 393 renal): < 10 nM | TGI (RXF 393 renal): < 10 nM | GI50 (SF-268 CNS): < 10 nM | TGI (SF-268 CNS): < 10 nM | GI50 (SF-295 CNS): 13.2 nM | TGI (SF-295 CNS): 26.1 nM | GI50 (SF-539 CNS): < 10 nM | TGI (SF-539 CNS): < 10 nM | GI50 (SK-MEL-28 melanoma): 17.2 nM | TGI (SK-MEL-28 melanoma): 36.8 nM | GI50 (SK-MEL-5 melanoma): < 10 nM | TGI (SK-MEL-5 melanoma): 21.6 nM | GI50 (SK-OV-3 ovarian): 14.1 nM | TGI (SK-OV-3 ovarian): 33.6 nM | GI50 (SN12C renal): 15 nM | TGI (SN12C renal): 29.1 nM | GI50 (SNB-19 CNS): 12.3 nM | TGI (SNB-19 CNS): 38.8 nM | GI50 (SNB-75 CNS): 15.4 nM | TGI (SNB-75 CNS): 30.6 nM | GI50 (SR leukemia): < 10 nM | TGI (SR leukemia): < 10 nM | GI50 (SW-620 colon): < 10 nM | TGI (SW-620 colon): < 10 nM | GI50 (T-47D breast): < 10 nM | TGI (T-47D breast): 18 nM | GI50 (TK-10 renal): 21.2 nM | TGI (TK-10 renal): 54 nM | GI50 (U251 glioblastoma): < 10 nM | TGI (U251 glioblastoma): 21.2 nM | GI50 (UACC-257 melanoma): 14.6 nM | TGI (UACC-257 melanoma): 28.8 nM | GI50 (UACC-62 melanoma): < 10 nM | TGI (UACC-62 melanoma): 19.3 nM | GI50 (UO-31 renal): 35.9 nM | TGI (UO-31 renal): 110 nM

— PubChem BioAssay (NCI)
